Results reported in patent US8637572B2, “Composition for promoting collagen production” (Shiseido Company, Ltd., priority 2009, dated 2014).

Columns and labels:
[1] = tested on: human neonatal dermal fibroblasts; experiment: Type I collagen production: PIP (C-terminal peptide of type I procollagen) in culture supernatant by EIA; format: cell-based; conditions: for effect on promoting type I collagen production compared to the negative control (Bonferroni/Dunn test): under every concentration condition
Protocol: (§1) Commercially available human neonatal dermal fibroblasts (Cryo NHDF-Neo, manufactured by Sanko Junyaku Co., Ltd.) were used. The cells were inoculated in a commercially available 24-well plate to have 2×10^5 cells per well. The cells were then cultured for four hours in a commercially available medium for cell culture (D-MEM (1 g/L glucose), manufactured by Wako Pure Chemical Industries, Ltd.) to which 10% bovine fetal serum was supplemented (herein below, referred to as a “standard medium”) in a 5% CO2 and saturated water vapor atmosphere at 37° C. (degrees Celsius).
(§2) Subsequently, the medium was switched to a commercially available medium for cell culture (D-MEM (1 g/L glucose), manufactured by Wako Pure Chemical Industries, Ltd.) supplemented with 0.5% bovine fetal serum (herein below, referred to as “low-serum medium”) and cultured for approximately one day in a 5% CO2 and saturated water vapor atmosphere at 37° C. (degrees Celsius). D-aspartic acid (manufactured by Wako Pure Chemical Industries, Ltd., 018-04821) was added to the low-serum medium to have the concentration of 0.01 μM (micro-molar), 0.1 μM (micro-molar), […] μM (micro-molar), or 320 μM (micro-molar). As a positive control, magnesium L-ascorbyl phosphate (L-Ascorbic Acid Phosphate Magnesium Salt n-Hydrate, herein below, referred to as “APM”, manufactured by Wako Pure Chemical Industries, Ltd., 013-19641) was added to the low-serum medium to have the concentration of 150 μM (micro-molar), 250 μM (micro-molar), or 500 μM (micro-molar). Further, the low-serum medium described above to which neither APM nor D-aspartic acid had been added was employed as a negative control.
After completing the cell culture for two days, the culture supernatant was collected and the concentration of C-terminal peptide of type I procollagen (herein below, referred to as “PIP”) produced by human neonatal dermal fibroblasts was measured by using Procollagen type I C-peptide EIA kit (manufactured by Takara Bio Inc.) according to the manufacturer's instruction.
The cell culture, addition of amino acids, and quantification of production amount of type I collagen were carried out in the same manner as the Example 1. As an amino acid, D-alanine (manufactured by Peptide Institute, Inc., 2801) was used at the concentrations of 0.01 μM (micro-molar), 0.1 μM (micro-molar), 10 μM (micro-molar), 1000 μM (micro-molar), and 17400 μM (micro-molar). Further, the low-serum medium described above to which neither APM nor D-alanine had been added was employed as a negative control.
The cell culture, addition of amino acids, and quantification of production amount of type I collagen were carried out in the same manner as the Example 1. D-Aspartic acid (manufactured by Wako Pure Chemical Industries, Ltd., 018-04821) of 0.1 μM (micro-molar) and L-aspartic acid (manufactured by Wako Pure Chemical Industries, Ltd., 013-04832) of 0.1 μM (micro-molar) were used as amino acids. Further, the low-serum medium described above to which neither L-aspartic acid nor D-aspartic acid had been added was employed as a negative control.
The cell culture, addition of amino acids, and quantification of production amount of type I collagen were carried out in the same manner as the Example 1. D-Alanine (manufactured by Peptide Institute, Inc., 2801) of 0.1 μM (micro-molar) or 150 μM (micro-molar) and L-alanine (manufactured by Peptide Institute, Inc., 2701) of 0.1 μM (micro-molar) or 150 μM (micro-molar) were used as amino acids. Further, the low-serum medium described above to which neither L-alanine nor D-alanine had been added was employed as a negative control.

[2] = tested on: human neonatal dermal fibroblasts; experiment: Type I atelocollagen production after pepsin treatment, by type I human collagen ELISA; format: cell-based; conditions: for promotion of type I collagen production compared to the negative control (Bonferroni/Dunn test): 0.1 μM, atelocollagen ELISA
Protocol: as §1, §2
The cell culture and addition of amino acids were carried out in the same manner as the Example 1. D-Aspartic acid (manufactured by Wako Pure Chemical Industries, Ltd., 018-04821) of 0.1 μM (micro-molar) and D-alanine (manufactured by Peptide Institute, Inc., 2801) of 0.1 μM (micro-molar) or 0.001 μM (micro-molar) were used as amino acids. Further, the low-serum medium described above to which neither D-aspartic acid nor D-alanine had been added was employed as a negative control. As a positive control, APM was added to the low-serum medium described above to have the concentration of 250 μM (micro-molar). In order to evaluate the production amount of type I collagen, type I procollagen and tropocollagen produced by human neonatal dermal fibroblasts were treated with pepsin (800 to 2500 unit/mg, P7000, manufactured by SIGMA), and the concentration of type I atelocollagen was measured by type I human collagen ELISA (EC1-E105, manufactured by AC Biotechnologies) according to the manufacturer's instruction.

[3] = Example 3, added at 0.1 μM, negative control 361 ng/mL
[4] = Example 5 results (1), added at 0.1 μM, negative control 1.8 μg/mL
[5] = Example 4, added at 0.1 μM, negative control 361 ng/mL
[6] = Example 4, added at 150 μM, negative control 361 ng/mL

magnesium L-ascorbyl phosphate [APM, reference compound]
PIP concentration ([1]; Example 1, added at 150 μM, two days culture, low-serum medium, negative control 583 ng/mL): 1183 ng/mL | PIP concentration ([1]; Example 1, added at 250 μM, negative control 583 ng/mL): 1666 ng/mL | PIP concentration ([1]; Example 1, added at 500 μM, negative control 583 ng/mL): 1416 ng/mL | effect on promoting type I collagen production compared to the negative control (Bonferroni/Dunn test) ([1]; Example 1): statistically significant effect | PIP concentration ([1]; Example 2, added at 150 μM, negative control 551 ng/mL): 1183 ng/mL | PIP concentration ([1]; Example 2, added at 250 μM, negative control 551 ng/mL): 1666 ng/mL | PIP concentration ([1]; Example 2, added at 500 μM, negative control 551 ng/mL): 1416 ng/mL | effect on promoting type I collagen production compared to the negative control (Bonferroni/Dunn test) ([1]; Example 2): statistically significant effect | concentration of type I atelocollagen ([2]; Example 5 results (1), added at 250 μM, negative control 1.8 μg/mL): 3.9 μg (microgram)/mL | concentration of type I atelocollagen ([2]; Example 5 results (2), added at 250 μM, negative control 1.7 μg/mL): 2.6 μg (microgram)/mL

N[C@@H](CC(=O)O)C(=O)O [L-aspartic acid, reference compound]
PIP concentration [1, 3]: 406 ng/mL

N[C@H](CC(=O)O)C(=O)O [D-aspartic acid]
effect on promoting type I collagen production in comparison with APM ([1]; Example 1, 0.01 μM to 100 μM similar to APM at 150 μM): prominently more potent effect on promoting type I collagen production than APM | PIP concentration ([1]; Example 1, added at 0.01 μM, negative control 583 ng/mL): 1286 ng/mL | PIP concentration ([1]; Example 1, added at 0.1 μM, negative control 583 ng/mL): 1159 ng/mL | PIP concentration ([1]; Example 1, added at 10 μM, negative control 583 ng/mL): 1117 ng/mL | PIP concentration ([1]; Example 1, added at 100 μM, negative control 583 ng/mL): 1119 ng/mL | PIP concentration ([1]; Example 1, added at 320 μM, negative control 583 ng/mL): 1007 ng/mL | effect on promoting type I collagen production compared to the negative control (Bonferroni/Dunn test) ([1]; Example 1): statistically significant effect | promotion of type I collagen production compared to the negative control (Bonferroni/Dunn test) ([1]; Example 3, 0.1 μM): promoted with statistical significance | PIP concentration [1, 3]: 456 ng/mL | promotion of type I collagen production compared to the negative control (Bonferroni/Dunn test) ([2]; Example 5 results (1)): promoted with statistical significance | concentration of type I atelocollagen [2, 4]: 3.8 μg (microgram)/mL

C[C@H](N)C(=O)O [L-alanine, reference compound]
PIP concentration [1, 5]: 405 ng/mL | PIP concentration [1, 6]: 413 ng/mL

C[C@@H](N)C(=O)O [D-alanine]
PIP concentration ([1]; Example 2, added at 0.01 μM, negative control 551 ng/mL): 750 ng/mL | PIP concentration ([1]; Example 2, added at 0.1 μM, negative control 551 ng/mL): 789 ng/mL | PIP concentration ([1]; Example 2, added at 10 μM, negative control 551 ng/mL): 876 ng/mL | PIP concentration ([1]; Example 2, added at 1000 μM, negative control 551 ng/mL): 823 ng/mL | PIP concentration ([1]; Example 2, added at 17400 μM, negative control 551 ng/mL): 799 ng/mL | effect on promoting type I collagen production compared to the negative control (Bonferroni/Dunn test) ([1]; Example 2): statistically significant effect | promotion of type I collagen production compared to the negative control (Bonferroni/Dunn test) ([1]; Example 4, 0.1 μM or 150 μM): promoted with statistical significance | PIP concentration [1, 5]: 502 ng/mL | PIP concentration [1, 6]: 450 ng/mL | promotion of type I collagen production compared to the negative control (Bonferroni/Dunn test) ([2]; Example 5 results (1)): promoted with statistical significance | concentration of type I atelocollagen [2, 4]: 4.0 μg (microgram)/mL | concentration of type I atelocollagen ([2]; Example 5 results (2), added at 0.001 μM, negative control 1.7 μg/mL): 2.1 μg (microgram)/mL
